One block for each compound: values may come before it.
Experiments:
[1] = test system: human glioblastoma stemlike cells and serum-cultured human glioblastoma cells; conditions: Weichert J. P., et al. (2014), FIG. 2; cited from earlier work
[2] = test system: cancer cell lines (renal, ovarian, pancreatic, melanoma, and prostate); assay: Uptake of CLR1501 by cancer cell lines versus normal fibroblasts (confocal microscopy); assay type: cell-based; conditions: 24 hours; five cancer cell lines (renal, ovarian, pancreatic, melanoma, prostate) vs normal human skin fibroblasts; 5 or 7.5 μM
Description: Human cancer cell lines were purchased from the American Type Culture Collection (ATCC). They included the following: Caki-2 (renal; clear cell carcinoma), HCT-116 (colorectal carcinoma); MES-SA/Dx5 (uterine sarcoma) [all maintained in McCoy's 5a medium supplemented with 10% fetal bovine serum (FBS)], Ovcar-3 (ovarian adenocarcinoma) [maintained in RPMI medium supplemented with 20% FBS], U87-MG (glioma) [maintained in minimum essential medium supplemented with 10% FBS], Mia Paca-2 (pancreatic carcinoma) (maintained in Dulbecco's modified Eagle's medium supplemented with 10% FBS), PC-3 (prostate carcinoma) (maintained in F-12K medium supplemented with 10% FBS), MDA-MB-231 (triple-negative mammary gland adenocarcinoma) (maintained in Leibovitz's medium supplemented with 10% FBS), and A549 (non-small cell lung carcinoma) (maintained in F-12 medium supplemented with 10% FBS). Normal human skin fibroblasts were purchased from ATCC and grown in Fibroblast Basal Medium PCS-201-030 supplemented with serum-free kit (Fibroblast Growth. Kit-Serum-Free PCS-201-040). […]
All cells were maintained at 37° C. in appropriate medium supplemented with 10% FBS and 5% CO2. […] The emission signal of CLRI 50 I was detected using Alexa Fluor 488 filters (ex/em 480/520 nm).

[3] = test system: non-small cell lung carcinoma (NSCLC) tumors; assay: Clinical evaluation of 131I-CLR1404 in NSCLC patients (gamma imaging); assay type: in vivo, human; conditions: two patients with advanced NSCLC; injection of <1 mCi 131I-CLR1404
Procedure: To date, two patients with advanced NSCLC were imaged after an injection of <1 mCi of ^131I-CLR1404. Blood and urine samples were collected at predetermined times, and gamma imaging performed at several time points following administration.
Materials and Methods: Following intravenous injection of iodine-131 labeled CLR1404 (1 mCi/20 μg), patients with advanced NSCLC where scanned at 3, 6, 24, 48, 96 h and at 7 and 11 days on a GE Maxxus dual Head SPECT scanner. Blood and urine samples were collected for pharmacokinetic analysis as well as clinical hematologic, renal, and hepatic bioanalysis.

[4] = test system: xenograft, orthotopic and transgenic cancer and cancer stem cell derived animal models; assay: Tumor selectivity of radioiodinated CLR1404 across animal tumor models (overall count); assay type: in vivo; conditions: transgenic and spontaneous rodent models
Procedure: All described animal studies were performed according to animal protocols approved by the Institutional Animal Care and Use Committee. Female athymic nude mice (Hsd:Athymic Nude-Foxnlnu or Crl:NU-Foxn1nu, Charles River Laboratories) about 4 to 5 weeks of age, 16 to 18 g (n=6), were used for human tumor xenograft studies. Mice were anesthetized with isoflurane and injected subcutaneously with viable tumor cells in 100 μl of Dulbecco's PBS (or, for glioma cells, […] of PBS) into the right flank. Inoculum sizes were 1×10^6 (for renal, ovarian, glioma, pancreatic, prostate, and NSCLC models), 2×10^6 (for colorectal and uterine models), or 3×10^6 (breast).
Radioiodinated ^124l-LR1404 was tested. in subcutaneous and orthotopic xenografts of 60 different spontaneous, transgenic, human, and rodent malignant cell lines and tumor types. […] Representative examples are of both human (FIG. 5A-5l) and rodent (FIG. 5J-M) tumors.

[5] = test system: human RL-251 tumor xenograft; assay: Prolonged retention of 131I-CLR1404 by RL-251 tumor xenograft; assay type: in vivo, SCID mouse; conditions: See FIG. 3
Description: FIG. 3. Prolonged retention of ^131ICLR1404 by human RL-251 tumor xenograft in SCIO mouse.

[6] = test system: PC-3 cells; assay: Uptake of 125I-CLR1404 by PC-3 cells after lipid raft disruption with filipin III; assay type: cell-based; conditions: PC-3 cells pretreated with 2 μg/ml filipin III 15 min, then 125I-CLR1404 for 1 h; compared to untreated control cells
Procedure: PC-3 cells were pretreated with either 2 μg/ml filipin III or vehicle for 15 min, then washed and incubated with 2 μCi of ^125I-CLR1404 for 1 h. The media was removed and the cells were washed with phosphate buffered saline containing 0.1% bovine serum albumin, trypsinized, then split into two samples for determination of cell number by DNA content (A280 compared to a cell line specific standard curve) and counts per minute using a Gamma Counter (Perkin Elmer).

[7] = test system: C6 glioma; assay: Rat C6 glioma model, NM404 imaging and tissue distribution; assay type: in vivo; conditions: for Tumor to brain ratio: C6 glioma-bearing rats
Procedure: Materials and Methods: All animals were housed and handled in accordance with the University of Wisconsin Research Animal Resources Center guidelines. Rat C6 glioma cells were propagated in DMEM medium (Life Technologies, Gaithersburg, Md.) supplemented with 10% heat-inactivated FBS (Bio Whittaker, Walkersville, Md.), 100 U/ml penicillin G, […] streptomycin, and 0.01 M HEPES (Life Technologies, Gaithersburg, Md.). Intracranial tumor implantation was performed as described previously. Cohen J D, et al., Intracranial C6 glioma model in adult Wistar-Furth rats. J Neuro Oncol 1990 8(1):95-6. Briefly, 1×10^6 C6 cells were resuspended in […] 1.2% methylcellulose and injected into the frontal lobes of anesthetized female Wistar rats (Harlan, Indianapolis, Ind.). Sham-operated animals received intracranial injections of an equal volume of methylcellulose without tumor cells.
Imaging Studies: Ten days after implantation, the presence of intracranial tumors was confirmed with MM. Briefly, anesthetized rats (6) received 2 ml of Gadodiamide (Gd, Omniscan 287 mg/ml, Nycomed, Princeton, N.J.) intraperitoneally and imaged 10 min later using a 1.5 Tesla clinical MR system (GE Signa LX) and a GE phased array extremity coil. The Tl-weighted (TR=500 ms, TE=I6.5 ms) multislice sequences covering the entire brain of each rat were inspected to select tumor-bearing rats with varying tumor sizes, and sham-operated rats for NM404 injections.
NM404 [18-(4-iodophenyl)-octadecylphosphocholine] (100 mg) was radioiodinated with ^125l via isotope exchange with Na^125I in a melt of pivalic acid. Weichert, et al. Int J Appl Rad Isotopes 1986; 37:907-913. NM404 has the same chemical structure as CLR1404 except that it is radioiodinated with ^125l instead of ^124l or ^131l. Following HPLC purification NM404 was dissolved in an aqueous 2% Polysorbate 20 solution prior to tail vein injection (5: −20 μCi/200 g rat) into four tumor-bearing and three sham-operated rats. At 1 (n=1), 2 (n=1), and 4 (n=2) days after NM404 injection, animals were euthanized (CO2) and brains were excised and imaged on a modified Bioscan AR2000 radio-TLC scanner (1 mm increments at 2 min acquisition/lane and 1 mm high-resolution collimator). In addition, normal brain, blood, kidney, liver, spleen, thyroid, and tumor tissues were weighed, and radioactivity counted in a gamma counter. The tissue distribution of radioactivity was then correlated to brain histology.

Structure (SMILES): C[N+](C)(C)CCOP(=O)([O-])OCCCCCCCCCCCCCCCCCCc1ccc(C2=C3C=CC=[N+]3[B-](F)(F)n3cccc32)cc1 [CLR1501]
- uptake compared to normal human astrocytes and fetal human neural stem cells [1]: enhanced uptake
- preferential uptake in cancer cell lines compared to normal fibroblasts [2]: five to nine

- tumor uptake and retention in the primary lung tumor [3]: significant tumor uptake and retention
- models showing tumor selectivity / selective and prolonged tumor retention [4]: 55/60
- time remaining in cancer cells [5]: up to 20 days
Structure (SMILES): C[N+](C)(C)CCOP(=O)([O-])OCCCCCCCCCCCCCCCCCCc1ccc(I)cc1 [CLR1404, 18-(4-iodophenyl)-octadecylphosphocholine]

- Tumor to brain ratio ([7]; 48 h after tail vein injection): 12.2
- Tumor to brain ratio ([7]; 96 h after tail vein injection): 6.7
- Radioactivity in normal brain tissue ([7]; sham operated control animals): minimal
Structure (SMILES): C[N+](C)(C)CCOP(=O)([O-])OCCCCCCCCCCCCCCCCCCc1ccc(I)cc1 [NM404, 18-(4-iodophenyl)-octadecylphosphocholine]
- less uptake after disruption of lipid rafts [6]: ~40%
- uptake and retention in gliomas (imaging) ([7]; gliomas ranging from 3-5 mm in diameter): striking uptake and prolonged retention in all gliomas
